# From US11413278B2, “Compounds and methods for promoting stress resistance” (priority 2015, dated 2022)
# Entries after “also recorded” stand apart in the source; their conditions may differ. Read-outs that look alike come from different tables or passages of the source.
# What was measured:
# FOXO3 = test: qPCR analysis of FOXO3-regulated genes; format: cell-based, human; details: for fold induction at 10 µM: Homo sapiens
# Method in brief: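 WI-38 cells treated with compound at 10 μM for 24 h, followed by Cells-to-Ct RT-qPCR of FOXO3 target genes normalised to B2M, PPIA and GAPDH. FOXO3 or NRF2 dependence tested by prior 10 nM siRNA knockdown (36 h transfection, compound added ~24 h after replating).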
# NRF2 = test: qPCR analysis of NRF2-regulated genes; format: cell-based, human; details: for fold induction at 10 µM: Homo sapiens
# Method in brief: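 WI-38 cells treated with compound at 10 μM for 24 hrs, then processed by Cells-to-Ct for RNA isolation, RT and qPCR of NRF2-regulated genes (HMOX1, NQO1, GCLC, GSTM1). Expression normalized to B2M, PPIA and GAPDH; siRNA knockdown of FOXO3 or NRF2 (10 nM) preceded treatment in some runs.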
# C. elegans = C. elegans lifespan assays (liquid and plate); format: in vivo, Caenorhabditis elegans; details: for ILS at 60 µM / ILS at 66 µM: Caenorhabditis elegans
# WI-38 cells = details: no H2O2 stress, 10 uM; negative control 0.41% ± 0.23%
# Description: WI-38 cells were seeded on 384-well plates for 24 hrs and then incubated with small molecules for 24 hrs. […] Images were collected on an INCell Analyzer 2000 (GE) and analyzed with the Developer software.
# human PARP1 = molecular target: T1, human PARP1 (Homo sapiens, UniProt P09874); test: PARP inhibitor assay (HT Fluorescent Homogeneous PARP Inhibition Assay Kit); format: biochemical; details: score
# T1 construct: purchased Trevigen
# T1 sequence (P09874 whole entry): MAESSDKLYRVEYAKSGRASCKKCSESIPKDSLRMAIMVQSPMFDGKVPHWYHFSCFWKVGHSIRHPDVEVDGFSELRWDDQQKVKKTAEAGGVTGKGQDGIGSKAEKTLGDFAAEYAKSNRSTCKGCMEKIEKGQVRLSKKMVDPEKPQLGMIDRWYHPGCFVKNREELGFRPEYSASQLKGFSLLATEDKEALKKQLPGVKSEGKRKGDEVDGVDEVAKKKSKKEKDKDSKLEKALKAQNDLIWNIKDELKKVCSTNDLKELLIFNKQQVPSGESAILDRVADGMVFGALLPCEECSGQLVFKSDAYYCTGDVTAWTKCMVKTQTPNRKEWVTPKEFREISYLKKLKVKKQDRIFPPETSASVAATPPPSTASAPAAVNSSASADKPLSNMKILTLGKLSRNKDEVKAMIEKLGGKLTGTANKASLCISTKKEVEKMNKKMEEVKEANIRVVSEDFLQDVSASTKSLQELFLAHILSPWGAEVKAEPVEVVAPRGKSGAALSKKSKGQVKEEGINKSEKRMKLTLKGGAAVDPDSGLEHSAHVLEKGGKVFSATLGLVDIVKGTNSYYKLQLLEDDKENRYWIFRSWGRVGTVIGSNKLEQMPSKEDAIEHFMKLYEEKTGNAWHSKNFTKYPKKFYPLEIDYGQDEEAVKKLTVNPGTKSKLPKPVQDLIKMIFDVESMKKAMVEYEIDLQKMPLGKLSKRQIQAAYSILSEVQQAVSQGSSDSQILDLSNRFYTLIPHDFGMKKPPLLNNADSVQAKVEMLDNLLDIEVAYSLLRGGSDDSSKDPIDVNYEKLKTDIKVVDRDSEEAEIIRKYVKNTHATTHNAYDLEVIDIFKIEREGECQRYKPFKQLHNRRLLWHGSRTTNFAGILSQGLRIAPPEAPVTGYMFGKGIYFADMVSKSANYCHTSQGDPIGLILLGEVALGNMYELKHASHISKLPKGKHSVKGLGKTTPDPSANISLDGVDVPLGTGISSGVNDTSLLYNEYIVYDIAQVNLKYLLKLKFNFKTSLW
# Method in brief: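 Human PARP1 with NAD and activated DNA, compounds at 10 μM final, 30 min at room temperature in dark. Resazurin/diaphorase cycling mix then added for 1 hr in dark before stop buffer; fluorescent homogeneous kit read-out.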
smiles,measurement,setting,value
O=C(c1ccc([N+](=O)[O-])o1)N1CCc2ccccc21 [O13],"Induction of at least two of five FOXO3-regulated genes (SOD2, GADD45A, CAT, DDB1, TXNIP)","FOXO3; 10 μM, 24 hrs, WI-38","significant induction; also recorded: significant, induction"
same,E = Potential FOXO3 Activation,FOXO3; 2-point score,0
same,fold induction at 10 µM,"FOXO3; 24 h, Assay 10(m), at 10 uM, qPCR, read-out: Induction of FOXO3-regulated genes: CAT normalized fold-change",1.33
same,fold induction at 10 µM,"FOXO3; 24 h, Assay 10(m), at 10 uM, qPCR, read-out: Induction of FOXO3-regulated genes: DDB1 normalized fold-change",1.27
same,fold induction at 10 µM,"FOXO3; 24 h, Assay 10(m), at 10 uM, qPCR, read-out: Induction of FOXO3-regulated genes: GADD45A normalized fold-change",1.2
same,fold induction at 10 µM,"FOXO3; 10 μM, 24 hrs, WI-38 cells, qPCR, normalized to B2M, n = 4, read-out: CAT expression, normalized fold change (FOXO3-regulated gene)",1.33
same,fold induction at 10 µM,"FOXO3; 10 μM, 24 hrs, WI-38 cells, qPCR, normalized to B2M, n = 4, read-out: DDB1 expression, normalized fold change (FOXO3-regulated gene)",1.27
same,fold induction at 10 µM,"FOXO3; 10 μM, 24 hrs, WI-38 cells, qPCR, normalized to B2M, n = 4, read-out: GADD45A expression, normalized fold change (FOXO3-regulated gene)",1.2
same,fold induction at 10 µM,"FOXO3; WI-38 cells, 10 μM, 24 hrs, n=4, qPCR normalized by B2M, read-out: DDB1 Normalized fold change",1.27
same,fold induction at 10 µM,"FOXO3; WI-38 cells, 10 μM, 24 hrs, n=4, qPCR normalized by B2M, read-out: GADD45A Normalized fold change",1.2
same,fold induction at 10 µM,"FOXO3; WI-38 cells, 10 μM, 24 hrs, n=4, qPCR normalized by B2M, read-out: SESN1 Normalized fold change",1.23
same,fold induction at 10 µM,"FOXO3; fold change, qPCR, WI-38 cells, 10 μM, 24 hrs, read-out: Summary of effects on FOXO3-regulated genes: CAT",1.33
same,fold induction at 10 µM,"FOXO3; fold change, qPCR, WI-38 cells, 10 μM, 24 hrs, read-out: Summary of effects on FOXO3-regulated genes: DDB1",1.27
same,fold induction at 10 µM,"FOXO3; fold change, qPCR, WI-38 cells, 10 μM, 24 hrs, read-out: Summary of effects on FOXO3-regulated genes: GADD45A",1.2
same,fold induction at 10 µM,"FOXO3; qPCR, WI-38 cells, 10 μM, n=4, 24 hrs, normalized by B2M, read-out: CAT Normalized fold change",1.32
same,fold induction at 10 µM,"FOXO3; qPCR, WI-38 cells, 10 μM, n=4, 24 hrs, normalized by B2M, read-out: SOD2 Normalized fold change",1.09
same,fold induction at 10 µM,"FOXO3; qPCR, WI-38 cells, 10 μM, n=4, 24 hrs, normalized by B2M, read-out: TXNIP Normalized fold change",0.907
same,K = Sestrin induction,FOXO3; score,0
same,E = Potential FOXO3 Activation,FOXO3; summary score,0
same,F = Potential NRF2 Activation,NRF2; 2-point score,2
same,"Potential NRF2 Activation (>=2 target genes induced, by >=1.5-fold)",NRF2; Assay 13(p),YES
same,fold induction at 10 µM,"NRF2; 24 h, Assay 12(o), at 10 uM, qPCR, read-out: Induction of NRF2-regulated genes: GCLC normalized fold-change",1.99
same,fold induction at 10 µM,"NRF2; 24 h, Assay 12(o), at 10 uM, qPCR, read-out: Induction of NRF2-regulated genes: GSTM1 normalized fold-change",1.31
same,fold induction at 10 µM,"NRF2; 24 h, Assay 12(o), at 10 uM, qPCR, read-out: Induction of NRF2-regulated genes: HMOX1 normalized fold-change",5.52
same,fold induction at 10 µM,"NRF2; 24 h, Assay 12(o), at 10 uM, qPCR, read-out: Induction of NRF2-regulated genes: NQO1 normalized fold-change",2.95
same,fold induction at 10 µM,"NRF2; rounded fold change, WI-38 cells, 10 μM, 24 hrs (RP11 for Gr-1D, RP29 for Gr-4D), read-out: Summary of effects on NRF2-regulated genes: HMOX1",5.52
same,fold induction at 10 µM,"NRF2; rounded fold change, WI-38 cells, 10 μM, 24 hrs (RP29 for Gr-4D), read-out: Summary of effects on NRF2-regulated genes: GSTM1",1.31
same,fold induction at 10 µM,"NRF2; rounded fold change, WI-38 cells, 10 μM, 24 hrs (RP29 for Gr-4D), read-out: Summary of effects on NRF2-regulated genes: NQO1",2.95
same,fold induction at 10 µM,"NRF2; rounded fold change, WI-38 cells, 10 μM, 24 hrs, read-out: Summary of effects on NRF2-regulated genes: GCLC",1.99
same,fold induction at 10 µM,"NRF2; 10 μM, 24 hrs, WI-38, read-out: Expression of at least two NRF2 target genes",> 1.5
same,fold induction at 10 µM,"NRF2; 10 μM, 24 hrs, WI-38 cells, qPCR, normalized to B2M, n = 4, read-out: GCLC expression, normalized fold change (NRF2-regulated gene)",1.99
same,fold induction at 10 µM,"NRF2; 10 μM, 24 hrs, WI-38 cells, qPCR, normalized to B2M, n = 4, read-out: GSTM1 expression, normalized fold change (NRF2-regulated gene)",1.31
same,fold induction at 10 µM,"NRF2; 10 μM, 24 hrs, WI-38 cells, qPCR, normalized to B2M, n = 4, read-out: HMOX1 expression, normalized fold change (NRF2-regulated gene)",5.52
same,fold induction at 10 µM,"NRF2; 10 μM, 24 hrs, WI-38 cells, qPCR, normalized to B2M, n = 4, read-out: NQO1 expression, normalized fold change (NRF2-regulated gene)",2.95
same,fold induction at 10 µM,"NRF2; WI-38 cells, 10 μM, 24 hrs, n=4, qPCR normalized by B2M, read-out: GCLC Normalized fold change",1.99
same,fold induction at 10 µM,"NRF2; WI-38 cells, 10 μM, 24 hrs, n=4, qPCR normalized by B2M, read-out: GSTM1 Normalized fold change",1.31
same,fold induction at 10 µM,"NRF2; WI-38 cells, 10 μM, 24 hrs, n=4, qPCR normalized by B2M, read-out: HMOX1 Normalized fold change",5.52
same,fold induction at 10 µM,"NRF2; WI-38 cells, 10 μM, 24 hrs, n=4, qPCR normalized by B2M, read-out: NQO1 Normalized fold change",2.95
same,F = Potential NRF2 Activation,NRF2; summary score,2
same,"relative change of mean lifespan vs control, Trial 6 (confirmative)","C. elegans; 60 μM, on plate, temperature-sensitive sterile animals, without FuDR, 1.0 × 10^11 bacteria/ml",+15.3%
same,"relative change of mean lifespan vs control, Trial 5 (confirmative)","C. elegans; 60 μM, on plate, temperature-sensitive sterile animals, without FuDR, 2.0 × 10^10 bacteria/ml",+8.4%
same,"Lifespan, average increase",C. elegans; 4 or more trials,18.2%
same,ILS at 60 µM,"C. elegans; 60 μM, in liquid, wild type, with FuDR, 1.0 × 10^9 bacteria/ml, read-out: relative change of mean lifespan vs control, Trial 1",32.7%
same,ILS at 60 µM,"C. elegans; 60 μM, in liquid, wild type, with FuDR, 2.5 × 10^9 bacteria/ml, read-out: relative change of mean lifespan vs control, Trial 2",10.3%
same,ILS at 60 µM,"C. elegans; 60 μM, on plate, CF512 temperature-sensitive sterile animals, without FuDR, 1.0 × 10^11 bacteria/ml, read-out: relative change of mean lifespan vs control, Trial 4",15%
same,ILS at 60 µM,"C. elegans; 60 μM, on plate, CF512 temperature-sensitive sterile animals, without FuDR, 2.0 × 10^10 bacteria/ml, read-out: relative change of mean lifespan vs control, Trial 3",27.3%
same,ILS at 66 µM,"C. elegans; Assay 2(z), 1.0 × 10^9 bacteria/ml, wild type + FuDR (2012 July), read-out: Lifespan assay in liquid",32.7%
same,ILS at 66 µM,"C. elegans; Assay 3(aa), 2.5 × 10^9 bacteria/ml, wild type + FuDR, read-out: Lifespan assay in liquid",10.3%
same,ILS at 66 µM,"C. elegans; Assay 4(ab), 2.0 × 10^10 bacteria/ml, CF512 worms, no FuDR, read-out: Lifespan assay on plates",27.3%
same,ILS at 66 µM,"C. elegans; Assay 5(ac), 1.0 × 10^11 bacteria/ml, CF512 worms, no FuDR, read-out: Lifespan assay on plates",15%
same,ILS at 66 µM,"C. elegans; Assay 6(ad), 2.0 × 10^10 bacteria/ml, CF512 worms, no FuDR, read-out: Lifespan assay on plates",8.4%
same,ILS at 66 µM,"C. elegans; Assay 7(ae), 1.0 × 10^11 bacteria/ml, CF512 worms, no FuDR, read-out: Lifespan assay on plates",15.3%
same,Extension of C. elegans' lifespan (qualitative),"C. elegans; in at least 3 to 4 trials, group range ~10% to ~50%",could extend animal's lifespan
same,O = Life span- extending scores in worms,"C. elegans; score scale 0 to 2, 4 to 6 independent trials",2 (2 for observed in more than 2 trials)
same,M = Lifespan-extending scores in worms,C. elegans; summary score,2 (2 for observed in more than 2 trials)
same,"Lifespan, mean (FIG. 6B)","C. elegans; temperature-sensitive sterile rollers, on plate, without FuDR, 25° C. then ~22° C., control 18.4±0.4",23.4±0.4
same,Lifespan increase (FIG. 6A),"C. elegans; wild-type, in liquid, with FuDR, 20° C., ~60 μM",~33.2%
same,"Lifespan, mean±SD (FIG. 6A)","C. elegans; wild-type, in liquid, with FuDR, 20° C., ~60 μM, control 21.1±0.5",28.1±1.1
same,"Percentage of propidium iodide-positive dead cells (no H2O2 stress treatment), at 10 uM",WI-38 cells,"0.69% ± 0.12%,"
same,L = PARP inhibition,human PARP1,0
